From paper PMC12090182, “Repurposing of the RIPK1-Selective Benzo[1,4]oxazepin-4-one Scaffold for the Development of a Type III LIMK1/2 Inhibitor” (ACS Chemical Biology, 2025)
Read-outs that look alike come from different tables or passages of the source.

Test system: U2OS cells
Assay type: cell-based
Details: U2OS
In short: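 HEK293T and U2OS cells (DMEM) and MRC-9 fibroblasts (EMEM) exposed to compounds at 1 and 10 μM. Live-cell confocal imaging of cell shape and fluorescence before and at 12, 24 and 48 h. Normalized to 0.1% DMSO; biological duplicates with SEM.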

CN1C(=O)[C@@H](N2CCc3c(nn(Cc4ccccc4)c3C(N)=O)C2=O)COc2cc(Cl)ccc21 [Compound 10, (S)-2-benzyl-6-(8-chloro-5-methyl-4-oxo-2,3,4,5-tetrahydrobenzo[b][1,4]oxazepin-3-yl)-7-oxo-4,5,6,7-tetrahydro-2H-pyrazolo[3,4-c]pyridine-3-carboxamide]
Cell count normalized to cells treated with DMSO control (1 µM, 0 h, replicate 1): 1.139 | Cell count per well (1 µM, 0 h, replicate 1): 237 | Population Fragmented Nuclei (%) (1 µM, 0 h, replicate 1): 37.05% | Population Healthy Nuclei (%) (1 µM, 0 h, replicate 1): 52.23% | Population Pyknosed Nuclei (%) (1 µM, 0 h, replicate 1): 10.71% | Population apoptotic cell (%) (1 µM, 0 h, replicate 1): 66.67% | Population cell that influence microtubule strucutre (%) (1 µM, 0 h, replicate 1): 2.56% | Population with increased mitochondrial mass (%) (1 µM, 0 h, replicate 1): 0.85% | Population with membrane disruption (%) (1 µM, 0 h, replicate 1): 5.98% | Cell count normalized to cells treated with DMSO control (1 µM, 0 h, replicate 2): 0.8633 | Cell count per well (1 µM, 0 h, replicate 2): 74 | Population Fragmented Nuclei (%) (1 µM, 0 h, replicate 2): 16.44% | Population Healthy Nuclei (%) (1 µM, 0 h, replicate 2): 79.45% | Population Pyknosed Nuclei (%) (1 µM, 0 h, replicate 2): 4.11% | Population apoptotic cell (%) (1 µM, 0 h, replicate 2): 33.33% | Population cell that influence microtubule strucutre (%) (1 µM, 0 h, replicate 2): 1.72% | Population with increased mitochondrial mass (%) (1 µM, 0 h, replicate 2): 1.72% | Population with membrane disruption (%) (1 µM, 0 h, replicate 2): 3.45% | Cell count normalized to cells treated with DMSO control (1 µM, 12 h, replicate 1): 1.055 | Cell count per well (1 µM, 12 h, replicate 1): 279 | Population Fragmented Nuclei (%) (1 µM, 12 h, replicate 1): 23.90% | Population Healthy Nuclei (%) (1 µM, 12 h, replicate 1): 65.44% | Population Pyknosed Nuclei (%) (1 µM, 12 h, replicate 1): 10.66% | Population apoptotic cell (%) (1 µM, 12 h, replicate 1): 75.86% | Population cell that influence microtubule strucutre (%) (1 µM, 12 h, replicate 1): 2.81% | Population with increased mitochondrial mass (%) (1 µM, 12 h, replicate 1): 1.69% | Population with membrane disruption (%) (1 µM, 12 h, replicate 1): 7.87% | Cell count normalized to cells treated with DMSO control (1 µM, 12 h, replicate 2): 0.9215 | Cell count per well (1 µM, 12 h, replicate 2): 109 | Population Fragmented Nuclei (%) (1 µM, 12 h, replicate 2): 11.11% | Population Healthy Nuclei (%) (1 µM, 12 h, replicate 2): 84.26% | Population Pyknosed Nuclei (%) (1 µM, 12 h, replicate 2): 4.63% | Population apoptotic cell (%) (1 µM, 12 h, replicate 2): 80.00% | Population cell that influence microtubule strucutre (%) (1 µM, 12 h, replicate 2): 2.20% | Population with increased mitochondrial mass (%) (1 µM, 12 h, replicate 2): 2.20% | Population with membrane disruption (%) (1 µM, 12 h, replicate 2): 3.30% | Cell count normalized to cells treated with DMSO control (1 µM, 24 h, replicate 1): 1.136 | Cell count per well (1 µM, 24 h, replicate 1): 354 | Population Fragmented Nuclei (%) (1 µM, 24 h, replicate 1): 25.72% | Population Healthy Nuclei (%) (1 µM, 24 h, replicate 1): 65.90% | Population Pyknosed Nuclei (%) (1 µM, 24 h, replicate 1): 8.38% | Population apoptotic cell (%) (1 µM, 24 h, replicate 1): 82.76% | Population cell that influence microtubule strucutre (%) (1 µM, 24 h, replicate 1): 4.39% | Population with increased mitochondrial mass (%) (1 µM, 24 h, replicate 1): 2.63% | Population with membrane disruption (%) (1 µM, 24 h, replicate 1): 7.02% | Cell count normalized to cells treated with DMSO control (1 µM, 24 h, replicate 2): 0.9633 | Cell count per well (1 µM, 24 h, replicate 2): 137 | Population Fragmented Nuclei (%) (1 µM, 24 h, replicate 2): 12.50% | Population Healthy Nuclei (%) (1 µM, 24 h, replicate 2): 81.62% | Population Pyknosed Nuclei (%) (1 µM, 24 h, replicate 2): 5.88% | Population apoptotic cell (%) (1 µM, 24 h, replicate 2): 87.50% | Population cell that influence microtubule strucutre (%) (1 µM, 24 h, replicate 2): 1.80% | Population with increased mitochondrial mass (%) (1 µM, 24 h, replicate 2): 1.80% | Population with membrane disruption (%) (1 µM, 24 h, replicate 2): 3.60% | Cell count normalized to cells treated with DMSO control (1 µM, 48 h, replicate 1): 1.128 | Cell count per well (1 µM, 48 h, replicate 1): 502 | Population Fragmented Nuclei (%) (1 µM, 48 h, replicate 1): 21.34% | Population Healthy Nuclei (%) (1 µM, 48 h, replicate 1): 69.72% | Population Pyknosed Nuclei (%) (1 µM, 48 h, replicate 1): 8.94% | Population apoptotic cell (%) (1 µM, 48 h, replicate 1): 86.36% | Population cell that influence microtubule strucutre (%) (1 µM, 48 h, replicate 1): 2.04% | Population with increased mitochondrial mass (%) (1 µM, 48 h, replicate 1): 3.21% | Population with membrane disruption (%) (1 µM, 48 h, replicate 1): 6.41% | Cell count normalized to cells treated with DMSO control (1 µM, 48 h, replicate 2): 0.973 | Cell count per well (1 µM, 48 h, replicate 2): 201 | Population Fragmented Nuclei (%) (1 µM, 48 h, replicate 2): 6.57% | Population Healthy Nuclei (%) (1 µM, 48 h, replicate 2): 83.33% | Population Pyknosed Nuclei (%) (1 µM, 48 h, replicate 2): 10.10% | Population apoptotic cell (%) (1 µM, 48 h, replicate 2): 85.00% | Population cell that influence microtubule strucutre (%) (1 µM, 48 h, replicate 2): 1.82% | Population with increased mitochondrial mass (%) (1 µM, 48 h, replicate 2): 2.42% | Population with membrane disruption (%) (1 µM, 48 h, replicate 2): 4.85% | cytotoxicity (1 μM): no cytotoxicity | Cell count normalized to cells treated with DMSO control (10 µM, 0 h, replicate 1): 1.1102 | Cell count per well (10 µM, 0 h, replicate 1): 231 | Population Fragmented Nuclei (%) (10 µM, 0 h, replicate 1): 38.84% | Population Healthy Nuclei (%) (10 µM, 0 h, replicate 1): 51.34% | Population Pyknosed Nuclei (%) (10 µM, 0 h, replicate 1): 9.82% | Population apoptotic cell (%) (10 µM, 0 h, replicate 1): 95.45% | Population cell that influence microtubule strucutre (%) (10 µM, 0 h, replicate 1): 3.48% | Population with increased mitochondrial mass (%) (10 µM, 0 h, replicate 1): 3.48% | Population with membrane disruption (%) (10 µM, 0 h, replicate 1): 6.09% | Cell count normalized to cells treated with DMSO control (10 µM, 0 h, replicate 2): 1.062 | Cell count per well (10 µM, 0 h, replicate 2): 91 | Population Fragmented Nuclei (%) (10 µM, 0 h, replicate 2): 26.19% | Population Healthy Nuclei (%) (10 µM, 0 h, replicate 2): 64.29% | Population Pyknosed Nuclei (%) (10 µM, 0 h, replicate 2): 9.52% | Population apoptotic cell (%) (10 µM, 0 h, replicate 2): 100.00% | Population cell that influence microtubule strucutre (%) (10 µM, 0 h, replicate 2): 3.70% | Population with increased mitochondrial mass (%) (10 µM, 0 h, replicate 2): 3.70% | Population with membrane disruption (%) (10 µM, 0 h, replicate 2): 7.41% | Cell count normalized to cells treated with DMSO control (10 µM, 12 h, replicate 1): 1.017 | Cell count per well (10 µM, 12 h, replicate 1): 269 | Population Fragmented Nuclei (%) (10 µM, 12 h, replicate 1): 26.62% | Population Healthy Nuclei (%) (10 µM, 12 h, replicate 1): 63.50% | Population Pyknosed Nuclei (%) (10 µM, 12 h, replicate 1): 9.89% | Population apoptotic cell (%) (10 µM, 12 h, replicate 1): 73.08% | Population cell that influence microtubule strucutre (%) (10 µM, 12 h, replicate 1): 4.19% | Population with increased mitochondrial mass (%) (10 µM, 12 h, replicate 1): 6.59% | Population with membrane disruption (%) (10 µM, 12 h, replicate 1): 8.38% | Cell count normalized to cells treated with DMSO control (10 µM, 12 h, replicate 2): 0.9722 | Cell count per well (10 µM, 12 h, replicate 2): 115 | Population Fragmented Nuclei (%) (10 µM, 12 h, replicate 2): 22.52% | Population Healthy Nuclei (%) (10 µM, 12 h, replicate 2): 63.96% | Population Pyknosed Nuclei (%) (10 µM, 12 h, replicate 2): 13.51% | Population apoptotic cell (%) (10 µM, 12 h, replicate 2): 100.00% | Population cell that influence microtubule strucutre (%) (10 µM, 12 h, replicate 2): 7.04% | Population with increased mitochondrial mass (%) (10 µM, 12 h, replicate 2): 9.86% | Population with membrane disruption (%) (10 µM, 12 h, replicate 2): 7.04% | Cell count normalized to cells treated with DMSO control (10 µM, 24 h, replicate 1): 0.9881 | Cell count per well (10 µM, 24 h, replicate 1): 308 | Population Fragmented Nuclei (%) (10 µM, 24 h, replicate 1): 23.59% | Population Healthy Nuclei (%) (10 µM, 24 h, replicate 1): 66.78% | Population Pyknosed Nuclei (%) (10 µM, 24 h, replicate 1): 9.63% | Population apoptotic cell (%) (10 µM, 24 h, replicate 1): 96.55% | Population cell that influence microtubule strucutre (%) (10 µM, 24 h, replicate 1): 6.97% | Population with increased mitochondrial mass (%) (10 µM, 24 h, replicate 1): 4.98% | Population with membrane disruption (%) (10 µM, 24 h, replicate 1): 5.97% | Cell count normalized to cells treated with DMSO control (10 µM, 24 h, replicate 2): 0.886 | Cell count per well (10 µM, 24 h, replicate 2): 126 | Population Fragmented Nuclei (%) (10 µM, 24 h, replicate 2): 18.18% | Population Healthy Nuclei (%) (10 µM, 24 h, replicate 2): 71.90% | Population Pyknosed Nuclei (%) (10 µM, 24 h, replicate 2): 9.92% | Population apoptotic cell (%) (10 µM, 24 h, replicate 2): 100.00% | Population cell that influence microtubule strucutre (%) (10 µM, 24 h, replicate 2): 6.90% | Population with increased mitochondrial mass (%) (10 µM, 24 h, replicate 2): 6.90% | Population with membrane disruption (%) (10 µM, 24 h, replicate 2): 10.34% | Cell count normalized to cells treated with DMSO control (10 µM, 48 h, replicate 1): 0.9437 | Cell count per well (10 µM, 48 h, replicate 1): 420 | Population Fragmented Nuclei (%) (10 µM, 48 h, replicate 1): 19.22% | Population Healthy Nuclei (%) (10 µM, 48 h, replicate 1): 67.40% | Population Pyknosed Nuclei (%) (10 µM, 48 h, replicate 1): 13.38% | Population apoptotic cell (%) (10 µM, 48 h, replicate 1): 90.91% | Population cell that influence microtubule strucutre (%) (10 µM, 48 h, replicate 1): 3.61% | Population with increased mitochondrial mass (%) (10 µM, 48 h, replicate 1): 3.97% | Population with membrane disruption (%) (10 µM, 48 h, replicate 1): 5.78% | Cell count normalized to cells treated with DMSO control (10 µM, 48 h, replicate 2): 0.7019 | Cell count per well (10 µM, 48 h, replicate 2): 145 | Population Fragmented Nuclei (%) (10 µM, 48 h, replicate 2): 21.28% | Population Healthy Nuclei (%) (10 µM, 48 h, replicate 2): 65.96% | Population Pyknosed Nuclei (%) (10 µM, 48 h, replicate 2): 12.77% | Population apoptotic cell (%) (10 µM, 48 h, replicate 2): 83.33% | Population cell that influence microtubule strucutre (%) (10 µM, 48 h, replicate 2): 7.53% | Population with increased mitochondrial mass (%) (10 µM, 48 h, replicate 2): 7.53% | Population with membrane disruption (%) (10 µM, 48 h, replicate 2): 15.05% | impact on tubulin, mitochondrial mass, and cellular permeability in healthy cells (1 μM (Figure 6)): comparable to that of the 0.1% DMSO control
